Measured values from PMC6694155, “PTPσ inhibitors promote hematopoietic stem cell regeneration” (Nature Communications, 2019).
Values joined by “and” are separate entries in the source; they are usually repeats but may differ in a detail not shown here. Equal entries are not always repeated.

What was measured:
[1] = test system: BM KSL cells / BM lin− cells; experiment: Gene expression of cell cycle regulatory genes (qPCR); format: cell-based, mouse
Description: Rac1 CDS-targeting- and Bcl2l1 CDS-targeting shRNA in lentiviral plasmid (TRCN0000310888 and TRCN0000004685) and control shRNA (SHC216V) were purchased from Sigma Aldrich. For viral production, 293T cells were transfected with lentiviral gag/pol and VSV-G (courtesy of Donald Kohn, UCLA) and the lentiviral plasmids, at a ratio of 2.2: 1.2: 3.3 (in [μg], gag/pol:VSVG:Plasmid) using Lipofectamine 3000 and P300 Enhancer. Viral particles were collected after 24 h and 48 h. One milliliter of viral supernatant was used to infect 0.75 × 10^6 BM lin^− cells. Infected cells were collected the next day and irradiated with 300 cGy followed by treatment with or without 1 μg/mL DJ001, prior to CFC assay.
For all studies, RNA was isolated using the Qiagen RNeasy micro kit (Qiagen). RNA was reverse transcribed using the High-Capacity cDNA Reverse Transcription Kit (ThermoFisher Scientific) and was then used for quantitative PCR with SYBR Select Master Mix (Life Technologies). Values were normalized to housekeeping gene Gapdh/GAPDH and given as ΔΔCt values normalized to media-treated, non-irradiated BM KSL cells (2(−ΔΔC(T)) method)[67].

BM KSL cells = experiment: Cell cycle analysis (Ki67/7AAD) of BM KSL cells; format: cell-based, mouse; set-up: G0 / G1 / G2SM: unit not given here
Description: Eight- to ten-week-old female C57BL/6 mice were irradiated with 500 cGy TBI followed by subcutaneous injections of 5 mg/kg DJ001 or vehicle, or 5 mg/kg DJ001 plus 40 mg/kg EHT1864. Twenty four hours after irradiation, mice were killed to collect BM cells for Annexin V apoptosis analysis. BM cells were stained with APC-Cy7-conjugated anti-mouse Sca1 (BD Biosciences, #560654, 1:100), PE-conjugated anti-ckit (BD Biosciences, #553355, 1:100), and V450 lineage cocktail (BD Biosciences, #561301, 1:10) antibodies for 30 min at 4 °C. Cells were then resuspended in 1× Annexin V binding buffer and then stained with FITC-conjugated anti-Annexin V antibody (BD Biosciences, #556547,1:50) and 7AAD antibody (BD Biosciences, #559925, 1:40)[68]. For in vitro human BM cell apoptosis assays, isolated human BM CD34^+ cells were plated into 96-well plates and then irradiated with 300 cGy. Immediately after irradiation, cells were treated with 5 μg/mL DJ001 or vehicle for 24 h and then collected for Annexin V cell apoptosis analysis. For cell cycle analysis, BM KSL cells were irradiated at 300 cGy and then treated with 1 μg/mL DJ001 or vehicle for 36 h. Subsequently, cells were resuspended in 200 μL of PBS, fixed with 1 mL of ice-cold fixation solution (0.25% Saponin, 2.5% PFA, 2% fetal calf serum (FCS) in PBS), and incubated for 30 min on ice. Cells were washed in Saponin buffer (0.25% Saponin, 2% FCS in PBS) and resuspended in 200 μL of Saponin buffer containing 20 μL of FITC-conjugated anti-Ki67 antibody (BD Biosciences, #556026, 1:10) and 1 μL of RNase (Qiagen, #19101, 100 mg/mL). After 30 min of incubation, cells were washed in Saponin buffer and resuspended for flow analysis in 200 μL of Saponin buffer containing 5 μL 7AAD (BD Biosciences, #559925, 1:40).

[2] = target: T1, VHR (Dual Specificity Phosphatase 3) (Homo sapiens, UniProt P51452); experiment: PhosphataseProfiler screen: VHR; format: biochemical; conditions: replicates
T1 construct: purchased Eurofins Pharma Discovery Services UK
Description: Compound DJ001 was evaluated in a PhosphataseProfiler™ screen at 10 μM and 1 μM (2.7 μg/mL and 0.27 μg/mL) concentrations at Eurofins Pharma Discovery Services UK (Study number UK022-0004033) against a panel of 21 Phosphatases. In each experiment, the respective reference antagonist/agonist was tested directly with DJ001 and the data were compared with historical values determined at Eurofins. DJ001 compound inhibition was calculated as percentage inhibition of the enzymatic activity compared with control.

[3] = Pharmacokinetic study for DJ001; format: in vivo, mouse; conditions: for concentration of DJ001 in the peripheral blood: 5 mg/kg single subcutaneous dose
Description: PK studies for DJ001 were performed at Cyprotex (Study Number CYP1426-R1) under non-good laboratory practice conditions. Mice were subcutaneously injected with a single dose of 5 mg/kg DJ001 (in 10% DMSO, 40% phosphate-buffered saline (PBS), 50% polyethylene glycol and plasma samples were collected at 0.08, 0.25, 0.5, 1, 2, 4, 8, and 24 h. Samples were crashed with three volumes of methanol and analytical internal standard (propranolol). Supernatant was subjected to liquid chromatography-mass spectrometry/mass spectrometry (MS/MS) using an acetonitrile-water gradient system and electrospray ionization in multiple reaction monitoring mode for MS detection. All plasma samples were compared with an internal calibration curve prepared in mouse blank plasma.

[4] = KSL cells, 36 h following 300 cGy, normalized to Gapdh and media
[5] = 36 h following 300 cGy, 1 μg/mL DJ001
[6] = 36 h following 300 cGy, 1 µg/mL DJ001, 6 µg/mL EHT1864, 240 ng/mL SU9516
[7] = cell cycle phase, Supplementary Figure 7h

T1 sequence (P51452 whole entry, species assumed): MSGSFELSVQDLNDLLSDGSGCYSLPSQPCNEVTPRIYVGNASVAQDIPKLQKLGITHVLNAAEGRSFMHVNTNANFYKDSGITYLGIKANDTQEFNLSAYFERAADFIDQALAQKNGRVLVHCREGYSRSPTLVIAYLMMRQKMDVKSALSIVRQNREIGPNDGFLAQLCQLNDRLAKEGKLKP

SMILES: O=C(/C=C\Nc1cccc([N+](=O)[O-])c1)c1ccccc1 [DJ001, (Z)-3-((3-nitrophenyl)amino)-1-phenylprop-2-en-1-one]
- DJ001-mediated transcription of Cdk2 and Cyclin E with Rac1-shRNA ([1]; BM KSL cells transduced with Rac1-shRNA): blocked DJ001-mediated transcription of Cdk2 and Cyclin E
- Fold changes (2^−ΔΔCt) of Cyclin E expression (Figure 4c right panel) ([1]; BM lin− cells, 48 h after 300 cGy, shCtrl): 1.96 and 1.7 and 1.9
- Fold changes (2^−ΔΔCt) of Cdk2 expression (Figure 4c left panel) ([1]; BM lin− cells, 48 h after 300 cGy, shRac1): 0.56 and 0.39 and 0.71 and 0.44
- Fold changes (2^−ΔΔCt) of Cdk2 expression [1, 4]: 1.9 and 2.08 and 1.8
- Fold changes (2^−ΔΔCt) of Cdk4 expression [1, 4]: 1.32 and 1.05 and 1
- Fold changes (2^−ΔΔCt) of Cdk6 expression [1, 4]: 1.09 and 0.91 and 0.98
- Fold changes (2^−ΔΔCt) of Cdkn1A expression [1, 4]: 1.43 and 1.41 and 1.14
- Fold changes (2^−ΔΔCt) of Cdkn1B expression [1, 4]: 1.11 and 1.07 and 0.74
- Fold changes (2^−ΔΔCt) of Cyclin D1 expression [1, 4]: 1.54 and 1.21 and 0.97
- Fold changes (2^−ΔΔCt) of Cyclin D2 expression [1, 4]: 1.04 and 1.14 and 0.74
- Fold changes (2^−ΔΔCt) of Cyclin E expression [1, 4]: 2.54 and 2.89 and 2.07
- expression of Cdk4, Cdk6, Cdkn1a, Cdkn1b, Cyclin D1, Cyclin D2 ([1]; irradiated BM KSL cells): did not alter the expression
- expression of Cdk2 and Cyclin E ([1]; irradiated KSL cells): significantly increased the expression
- percentage of KSL cells in G2/S/M phase vs control (BM KSL cells; 36 h following 300 cGy): significantly increased the percentage of KSL cells in G2/S/M phase
- percentages of KSL cells in G0, per replicate (Figure 4a) (BM KSL cells; [5]): 10.898% and 7.091% and 6.413% and 9.19% and 8.538% and 7.981% and 5.757%
- percentages of KSL cells in G1, per replicate (Figure 4a) (BM KSL cells; [5]): 51.766% and 62.582% and 57.686% and 51.047% and 60.936% and 51.069% and 57.668%
- percentages of KSL cells in G2SM, per replicate (Figure 4a) (BM KSL cells; [5]): 36.781% and 29.964% and 35.471% and 38.731% and 30% and 39.75% and 36.236%
- percentages of BM cells in G0, per replicate (Figure 4d bottom left panel) (BM KSL cells; [6]): 12% and 10% and 8% and 4% and 11%
- percentages of BM cells in G1, per replicate (Figure 4d bottom center panel) (BM KSL cells; [6]): 52% and 54% and 51% and 48%
- percentages of BM cells in G2/S/M, per replicate (Figure 4d bottom right panel) (BM KSL cells; [6]): 35% and 40% and 41% and 39%
- G0 (BM KSL cells; [7]): 17.593 and 13.329 and 15.794 and 18.75 and 23.139 and 16.263 and 18.5
- G1 (BM KSL cells; [7]): 51.409 and 55.557 and 49.648 and 46.611 and 42.434 and 51.122 and 52.817
- G2SM (BM KSL cells; [7]): 27.738 and 29.087 and 32.369 and 30.422 and 28.183 and 29.707 and 25.745
- Supplementary Figure 1: VHR activity ([2]; 2.7 μg/mL DJ001): 94 and 84 and 95
- Supplementary Figure 1: VHR activity ([2]; 0.27 g/mL DJ001): 100 and 101 and 98
- concentration of DJ001 in the peripheral blood ([3]; through + 24 hours following administration): approximately 10 ng/ml
- concentration of DJ001 in the peripheral blood ([3]; within 1 hour after administration): 100 ng/mL
- DJ001 concentrations in the PB ([3]; 5 mg/kg subcutaneously × 1, over several hours post injection): 10 to 100 ng/mL
- Supplementary Figure 4f: Concentration ([3]; 0.08 Hours, individual mice): 170 ng/mL and 54.7 ng/mL and 61.1 ng/mL
- Supplementary Figure 4f: Concentration ([3]; 0.25 Hours, individual mice): 159 ng/mL and 93.5 ng/mL
- Supplementary Figure 4f: Concentration ([3]; 0.5 Hours, individual mice): 113 ng/mL and 133 ng/mL and 60.5 ng/mL
- Supplementary Figure 4f: Concentration ([3]; 1 Hours, individual mice): 40.5 ng/mL and 40.7 ng/mL
- Supplementary Figure 4f: Concentration ([3]; 2 Hours, individual mice): 35.3 ng/mL and 19.5 ng/mL
- Supplementary Figure 4f: Concentration ([3]; 4 Hours, individual mice): 5.8 ng/mL and 6.7 ng/mL
- Supplementary Figure 4f: Concentration ([3]; 8 Hours, individual mice): 1.7 ng/mL and 7.8 ng/mL and 12.4 ng/mL
- Supplementary Figure 4f: Concentration ([3]; 24 Hours, individual mice): 2.8 ng/mL and 2.3 ng/mL and 8.9 ng/mL
- concentration at 0.25 h ([3]; C57BL/6, mouse, plasma, subcutaneous, 5 mg/kg, 0.25 Hours, individual mice, read-out: Supplementary Figure 4f: Concentration): 113 ng/mL
- concentration at 1 h ([3]; C57BL/6, mouse, plasma, subcutaneous, 5 mg/kg, 1 Hours, individual mice, read-out: Supplementary Figure 4f: Concentration): 79.5 ng/mL
- concentration at 2 h ([3]; C57BL/6, mouse, plasma, subcutaneous, 5 mg/kg, 2 Hours, individual mice, read-out: Supplementary Figure 4f: Concentration): 32.9 ng/mL
- concentration at 4 h ([3]; C57BL/6, mouse, plasma, subcutaneous, 5 mg/kg, 4 Hours, individual mice, read-out: Supplementary Figure 4f: Concentration): 6.5 ng/mL
